# Test results as given in BindingDB's records for doi:10.1016/j.bmcl.2015.12.003 (University of Auckland, 2016).
# Experiment: Inhibition of recombinant perforin (unknown origin) mediated lysis of human Jurkat cells pre-incubated for 30 mins with perforin followed by incubation with Jurkat cells at 37 degC for 4 hrs assessed as 51Cr release by gamma counting analysis
row,IC50,Structure (SMILES)
1,6.04 µM,NC(=O)c1ccc(-c2ccc(-c3ccc4c(c3)CNC4=O)s2)cc1
2,4.85 µM,NS(=O)(=O)c1cccc(-c2ccc(-c3ccc4c(c3)COC4=O)s2)c1
3,0.92 µM,NC(=O)c1ccc(-c2ccc(-c3ccc4c(c3)COC4=O)s2)cn1
4,> 20 µM,O=C1OCc2cc(-c3ccc(-c4ccccc4)s3)ccc21
5,5.84 µM,Nc1cc(-c2ccc(-c3ccc4c(c3)COC4=O)s2)ccc1C(=O)O
6,6.09 µM,CC(C)(C)NS(=O)(=O)c1ccc(-c2ccc(-c3ccc4c(c3)COC4=O)s2)cc1
7,5.89 µM,O=C1OCc2cc(-c3ccc(-c4cccc(O)c4)s3)ccc21
8,1.2 µM,NC(=O)c1ccc(-c2ccc(-c3ccc4c(c3)COC4=O)s2)cc1N
9,> 20 µM,CN1Cc2cc(-c3ccc(-c4ccc(C(N)=O)cc4)s3)ccc2C1=O
10,> 20 µM,CC(O)CNC(=O)c1ccc(-c2ccc(-c3ccc4c(c3)COC4=O)s2)cc1O (stereo unspecified)
11,> 20 µM,O=C1OCc2cc(-c3ccc(-c4ccc(O)cc4)s3)ccc21
12,0.18 µM,NC(=O)c1ccc(-c2ccc(-c3ccc4c(c3)COC4=O)s2)cc1
13,> 20 µM,CN1CCN(C(=O)c2ccc(-c3ccc(-c4ccc5c(c4)COC5=O)s3)cc2)CC1
14,> 20 µM,CN(C)CCNC(=O)c1ccc(-c2ccc(-c3ccc4c(c3)COC4=O)s2)cc1O
15,> 20 µM,CN(C)CCCNC(=O)c1ccc(-c2ccc(-c3ccc4c(c3)COC4=O)s2)cc1
16,> 20 µM,COc1cccc(-c2ccc(-c3ccc4c(c3)COC4=O)s2)c1
17,> 20 µM,COc1ccccc1-c1ccc(-c2ccc3c(c2)COC3=O)s1
18,4.53 µM,O=C1OCc2cc(-c3ccc(-c4ccncc4)s3)ccc21
19,> 20 µM,CN(C)CCNC(=O)c1ccc(-c2ccc(-c3ccc4c(c3)COC4=O)s2)cc1N
20,14 µM,Nc1cccc(-c2ccc(-c3ccc4c(c3)COC4=O)s2)c1
21,20 µM,N#Cc1cccc(-c2ccc(-c3ccc4c(c3)COC4=O)s2)c1
22,> 20 µM,Cc1ccccc1-c1ccc(-c2ccc3c(c2)COC3=O)s1
23,2.65 µM,NC(=O)CNC(=O)c1ccc(-c2ccc(-c3ccc4c(c3)COC4=O)s2)cc1O

row,IC50,Structure (SMILES)
1,12.8 µM,O=C(NCCN1CCOCC1)c1ccc(-c2ccc(-c3ccc4c(c3)COC4=O)s2)cc1O
2,0.67 µM,NC(=O)c1ccc(-c2ccc(-c3ccc4c(c3)COC4=O)s2)cc1O
3,10.7 µM,CNC(=O)c1ccc(-c2ccc(-c3ccc4c(c3)COC4=O)s2)cc1
4,3.31 µM,O=C(NCCO)c1ccc(-c2ccc(-c3ccc4c(c3)COC4=O)s2)cc1O
5,0.9 µM,O=C1OCc2cc(-c3ccc(-c4ccc(CO)cc4)s3)ccc21
6,11.8 µM,Nc1ccc(-c2ccc(-c3ccc4c(c3)COC4=O)s2)cc1
7,2.97 µM,NC(=O)c1cccc(-c2ccc(-c3ccc4c(c3)COC4=O)s2)c1
8,6.24 µM,O=C1OCc2cc(-c3ccc(-c4ccc5c(c4)COC5=O)s3)ccc21
9,> 20 µM,Cc1ccc(-c2ccc(-c3ccc4c(c3)COC4=O)s2)cc1
10,7.12 µM,NC(=O)CCNC(=O)c1ccc(-c2ccc(-c3ccc4c(c3)COC4=O)s2)cc1O
11,> 20 µM,CN(C)C(=O)c1ccc(-c2ccc(-c3ccc4c(c3)COC4=O)s2)cc1
12,> 20 µM,O=C1OCc2cc(-c3ccc(-c4cccc(Cl)c4)s3)ccc21
13,> 20 µM,CCOC(=O)c1ccc(-c2ccc(-c3ccc4c(c3)COC4=O)s2)cc1O
14,> 20 µM,CSc1ccc(-c2ccc(-c3ccc4c(c3)COC4=O)s2)cc1
15,> 20 µM,O=C1OCc2cc(-c3ccc(-c4ccccc4Cl)s3)ccc21
16,> 20 µM,CS(=O)(=O)c1ccc(-c2ccc(-c3ccc4c(c3)COC4=O)s2)cc1
17,> 20 µM,Cc1cccc(-c2ccc(-c3ccc4c(c3)COC4=O)s2)c1
18,14.7 µM,Nc1cc(-c2ccc(-c3ccc4c(c3)COC4=O)s2)ccc1C(=O)NCCN1CCOCC1
19,11 µM,CCOC(=O)c1ccc(-c2ccc(-c3ccc4c(c3)COC4=O)s2)cc1
20,1.09 µM,CS(=O)(=O)Nc1ccc(-c2ccc(-c3ccc4c(c3)COC4=O)s2)cc1
21,9.36 µM,COc1ccc(-c2ccc(-c3ccc4c(c3)COC4=O)s2)cc1
22,> 20 µM,O=C1OCc2cc(-c3ccc(-c4ccc(Cl)cc4)s3)ccc21
23,6.87 µM,N#Cc1ccc(-c2ccc(-c3ccc4c(c3)COC4=O)s2)cc1
